# From ChEMBL document CHEMBL1126898 (J Med Chem, 1993)
# Target: Sodium-dependent dopamine transporter (Rattus norvegicus, UniProt P23977)
# Assay: Inhibition of [3H]WIN-35428 binding to dopamine transporter in rat striatal membranes.
# Format: cell membranes, Membrane
# Chain of Sodium-dependent dopamine transporter (P23977 whole entry): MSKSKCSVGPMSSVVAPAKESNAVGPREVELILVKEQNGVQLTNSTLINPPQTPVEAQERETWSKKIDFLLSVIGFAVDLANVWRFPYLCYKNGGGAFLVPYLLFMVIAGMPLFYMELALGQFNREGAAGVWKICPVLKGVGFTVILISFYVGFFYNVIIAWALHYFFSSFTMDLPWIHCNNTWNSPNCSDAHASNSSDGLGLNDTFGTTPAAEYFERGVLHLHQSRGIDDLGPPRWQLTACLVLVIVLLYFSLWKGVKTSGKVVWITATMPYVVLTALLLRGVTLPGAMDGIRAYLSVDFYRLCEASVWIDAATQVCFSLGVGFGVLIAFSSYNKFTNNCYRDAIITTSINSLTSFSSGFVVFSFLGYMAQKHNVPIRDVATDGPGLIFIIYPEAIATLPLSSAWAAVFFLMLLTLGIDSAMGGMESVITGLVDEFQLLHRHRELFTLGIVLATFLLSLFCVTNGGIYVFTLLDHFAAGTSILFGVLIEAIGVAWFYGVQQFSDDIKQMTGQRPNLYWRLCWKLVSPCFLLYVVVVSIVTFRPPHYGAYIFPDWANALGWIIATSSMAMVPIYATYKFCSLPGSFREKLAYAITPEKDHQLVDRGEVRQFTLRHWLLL
row,Structure (SMILES),IC50 [nM]
1,CN1C2CCC1C(C(=O)OCCc1ccccc1)[C@H](OC(=O)c1ccccc1)C2 (stereo not given in full),248
2,COC(=O)C1C2CCC(C[C@H]1c1ccccc1)N2C (stereo not given in full),23
3,COC(=O)C1C2CCC(C[C@H]1OC(=O)c1ccccc1)N2Cc1ccccc1 (stereo not given in full),668
4,COC(=O)C1C2CCC(C[C@H]1c1ccc(N)cc1)N2C (stereo not given in full),25
5,CN1C2CCC1C(C(=O)Oc1ccccc1)[C@H](OC(=O)c1ccccc1)C2 (stereo not given in full),112
6,COC(=O)C1C2CCC(C[C@H]1OC(=O)c1ccccc1)N2 (stereo not given in full),303
7,CN1C2CCC1C(C(=O)OCCc1ccc(N)cc1)[C@H](OC(=O)c1ccccc1)C2 (stereo not given in full),72
8,CN1C2CCC1C(CO)[C@H](OC(=O)c1ccccc1)C2 (stereo not given in full),561
9,COC(=O)[C@H]1C2CCC(C[C@@H]1OC(=O)c1ccccc1)N2 (stereo in doubt; form 1) [PSEUDOCOCAINE],22500
10,COC(=O)[C@H]1C2CCC(C[C@@H]1OC(=O)c1ccccc1)N2 (stereo in doubt; form 2) [PSEUDOCOCAINE],15800
